Laboratory results reported in ChEMBL document CHEMBL3822398, “Design, synthesis and in vitro biological evaluation of short-chain C12-sphinganine and its 1,2,3-triazole analogs as potential antimicrobial and anti-biofilm agents” (Eur J Med Chem, 2016).
Converted amounts (≈) assume the structure as drawn.

How the values were obtained:
Format in all cases: functional
Staphylococcus aureus [1] = assay: Antibacterial activity against Staphylococcus aureus MTCC 96 incubated for 24 hrs at 37 degC by well diffusion method; details: MTCC 96, 24 h
Bacillus subtilis [2] = assay: Antibacterial activity against Bacillus subtilis MTCC 121 incubated for 24 hrs at 37 degC by well diffusion method; details: MTCC 121, 24 h
Staphylococcus aureus [3] = assay: Antibacterial activity against Staphylococcus aureus MLS16 MTCC 2940 incubated for 24 hrs at 37 degC by well diffusion method; details: MLS16 MTCC 2940, 24 h
Micrococcus luteus [4] = assay: Antibacterial activity against Micrococcus luteus MTCC 2470 incubated for 24 hrs at 37 degC by well diffusion method; details: MTCC 2470, 24 h
Raoultella planticola [5] = assay: Antibacterial activity against Klebsiella planticola MTCC 530 incubated for 24 hrs at 37 degC by well diffusion method; details: MTCC 530, 24 h
Escherichia coli [6] = assay: Antibacterial activity against Escherichia coli MTCC 739 incubated for 24 hrs at 37 degC by well diffusion method; details: MTCC 739, 24 h
Pseudomonas aeruginosa = assay: Antibacterial activity against Pseudomonas aeruginosa MTCC 2453 incubated for 24 hrs at 37 degC by well diffusion method; details: MTCC 2453, 24 h
Staphylococcus aureus [7] = assay: Bactericidal activity against Staphylococcus aureus MTCC 96 incubated for 24 hrs; details: MTCC 96, 24 h
Bacillus subtilis [8] = assay: Bactericidal activity against Bacillus subtilis MTCC 121 incubated for 24 hrs; details: MTCC 121, 24 h
Staphylococcus aureus [9] = assay: Bactericidal activity against Staphylococcus aureus MLS16 MTCC 2940 incubated for 24 hrs; details: MLS16 MTCC 2940, 24 h
Micrococcus luteus [10] = assay: Bactericidal activity against Micrococcus luteus MTCC 2470 incubated for 24 hrs; details: MTCC 2470, 24 h
Raoultella planticola [11] = assay: Bactericidal activity against Klebsiella planticola MTCC 530 incubated for 24 hrs; details: MTCC 530, 24 h
Escherichia coli [12] = assay: Bactericidal activity against Escherichia coli MTCC 739 incubated for 24 hrs; details: MTCC 739, 24 h

MIC (Staphylococcus aureus [1]): 3.9 µg/mL (≈ 11 µM)
MIC (Bacillus subtilis [2]): 7.8 µg/mL (≈ 22.1 µM)
MIC (Staphylococcus aureus [3]): > 250 µg/mL
MIC (Micrococcus luteus [4]): 7.8 µg/mL (≈ 22.1 µM)
MIC (Escherichia coli [6]): > 250 µg/mL
MIC (Pseudomonas aeruginosa): > 250 µg/mL
SMILES: CCCCCCCCC[C@@H](O)[C@H](CO)n1cc(CCCCCC)nn1
MIC (Raoultella planticola [5]): > 250 µg/mL
MBC (Staphylococcus aureus [7]): 3.9 µg/mL (≈ 11 µM)
MBC (Bacillus subtilis [8]): 15.6 µg/mL (≈ 44.1 µM)
MBC (Staphylococcus aureus [9]): > 250 µg/mL
MBC (Micrococcus luteus [10]): 15.6 µg/mL (≈ 44.1 µM)
MBC (Raoultella planticola [11]): > 250 µg/mL
MBC (Escherichia coli [12]): > 250 µg/mL
